Assay results as given in PMC12153338, “Resistance to oxyimino-cephalosporins conferred by an alternative mechanism of hydrolysis by the Acinetobacter-derived cephalosporinase-33 (ADC-33), a class C β-lactamase present in carbapenem-resistant Acinetobacter baumannii (CRAb)” (mBio, 2025).
Converted amounts (≈) assume the structure as drawn.

Experiments:
ADC-217 = ADC-217 (Acinetobacter baumannii, UniProt Q6DRA1, V286E, form not given); experiment: Competition kinetics with nitrocefin (Ki), ADC-217; assay type: biochemical; conditions: 3 min pre-incubation, Cheng-Prusoff corrected
Protocol: (§1) For inhibition kinetics, utilizing NCF as a colorimetric substrate of ADCs, the inhibition constant (Ki) of CAZ and FDC with ADCs was determined using competition kinetics as previously described ([5]). After a 3 min pre-incubation of the enzyme (2 nM) with increasing concentration of the inhibitor, measurements of the initial velocities were performed with the addition of 100–200 µM NCF (twofold of the experimentally determined KM value). To determine the average velocities (v0), data from three experiments were fit to the followingequation: […]
(§2) where vu represents the NCF uninhibited velocity and IC50 represents the inhibitor concentration that results in a 50% reduction of vu. The Ki value was corrected for the NCF affinity (KM values for each ADC) with the Cheng-Prusoff ([5]) equation: […]
(§3) The standard error for Ki values was generated by factoring in the larger of the proportional standard errors for the individual IC50 value and the KM -NCF value.

[1] = system: DH10B Escherichia coli pBCSK− no insert; experiment: MIC by broth microdilution, DH10B E. coli with pBCSK− no insert; assay type: cell-based; conditions: DH10B E. coli with pBCSK− no insert (control strain), FDC in iron-depleted cation-adjusted MH broth
Protocol: (§4) Susceptibility testing to standard antibiotics was performed by broth microdilution according to 2024 Clinical and Laboratory Standards Institute (CLSI) guidelines ([38]). MICs for FDC were done in iron-depleted cation-adjusted Mueller-Hinton (MH) broth according to CLSI methods. All MICs were interpreted according to the 2024 CLSI guidelines ([38]). MICs are done in triplicate, and the mode MIC value is reported.
(§5) blaADC-7 pBCSK− was cloned and expressed in E. coli DH10B cells as previously described for MIC determinations ([3]). The pBCSK-non-inducible phagemid vector has a chloramphenicol resistance gene used to aid selection. All other blaADC variants were synthesized by GenScript according to the blaADC-7 pBCSK− strategy, cloning into the XbaI/BamHI sites of the pBCSK− vector ([5]).

ADC-33 [2] = biological target: T1, ADC-33 (Acinetobacter baumannii, UniProt A7Y407); experiment: Competition kinetics with nitrocefin (Ki), ADC-33; assay type: biochemical; conditions: 3 min pre-incubation, Cheng-Prusoff corrected
Protocol: as §1, §2, §3

DH10B alone = experiment: MIC by broth microdilution, DH10B alone; assay type: cell-based; conditions: Escherichia coli; DH10B alone (control strain); FDC in iron-depleted cation-adjusted MH broth
Protocol: as §4, §5

ADC-30 = ADC-30 (Acinetobacter baumannii, UniProt A7XM81); experiment: Competition kinetics with nitrocefin (Ki), ADC-30; assay type: biochemical; conditions: 3 min pre-incubation, Cheng-Prusoff corrected
Protocol: as §1, §2, §3

[3] = system: ADC-172 in DH10B Escherichia coli; experiment: MIC by broth microdilution, ADC-172 in DH10B E. coli; assay type: cell-based; conditions: Escherichia coli; DH10B E. coli expressing ADC-172 (Adup) from pBCSK−; FDC in iron-depleted cation-adjusted MH broth; mode of triplicate; read-out: MIC
Protocol: as §4, §5

ADC-73 = ADC-73 (Acinetobacter baumannii, UniProt A0A059ZDI2); experiment: Competition kinetics with nitrocefin (Ki), ADC-73; assay type: biochemical; conditions: 3 min pre-incubation, Cheng-Prusoff corrected
Protocol: as §1, §2, §3

[4] = system: ADC-33 in DH10B Escherichia coli; experiment: MIC by broth microdilution, ADC-33 in DH10B E. coli; assay type: cell-based; conditions: DH10B E. coli expressing ADC-33 (Adup) from pBCSK−, FDC in iron-depleted cation-adjusted MH broth, mode of triplicate
Protocol: as §4, §5

[5] = system: ADC-7 in DH10B Escherichia coli; experiment: MIC by broth microdilution, ADC-7 in DH10B E. coli; assay type: cell-based; conditions: DH10B E. coli expressing ADC-7 (non-Adup) from pBCSK−, FDC in iron-depleted cation-adjusted MH broth, mode of triplicate
Protocol: as §4, §5

[6] = system: ADC-217 in DH10B Escherichia coli; experiment: MIC by broth microdilution, ADC-217 in DH10B E. coli; assay type: cell-based; conditions: DH10B E. coli expressing ADC-217 (non-Adup) from pBCSK−, FDC in iron-depleted cation-adjusted MH broth, mode of triplicate
Protocol: as §4, §5

ADC-7 = ADC-7 (Acinetobacter baumannii, UniProt Q6DRA1); experiment: Competition kinetics with nitrocefin (Ki), ADC-7; assay type: biochemical; conditions: 3 min pre-incubation, Cheng-Prusoff corrected
Protocol: as §1, §2, §3

ADC-143 = ADC-143 (Acinetobacter baumannii, UniProt Q6DRA1, Q144K, form not given); experiment: Competition kinetics with nitrocefin (Ki), ADC-143; assay type: biochemical; conditions: 3 min pre-incubation, Cheng-Prusoff corrected
Protocol: as §1, §2, §3

[7] = system: ADC-219 in DH10B Escherichia coli; experiment: MIC by broth microdilution, ADC-219 in DH10B E. coli; assay type: cell-based; conditions: DH10B E. coli expressing ADC-219 (Adup) from pBCSK−, FDC in iron-depleted cation-adjusted MH broth, mode of triplicate
Protocol: as §4, §5

ADC-33 [8] = biological target: T1, ADC-33; experiment: Timed electrospray ionization mass spectrometry of acylated adducts, ADC-33; assay type: binding; conditions: ADC-33, incubation 30 s–1 h; enzyme:substrate 1:25
Protocol: β-Lactamase (5 µg) was incubated with substrate at a molar ratio of 1:25 (FDC, CAZ, meropenem [MEM]) in sterile 10 mM PBS, pH 7.4, for a total reaction volume of 20 µL (t = 30 s, 1 min, 15 min, 30 min, 1 h, 2 h, and 24 h). Reactions were quenched with 1% acetonitrile and 0.1% formic acid. Samples were analyzed using Q-TOF Waters Synapt-G2-Si and a Waters Acquity ultrapressure liquid chromatography BEH C18 column (1.7 µm […]; 2.1 × 50 mm). MassLynx v.4.1 was used to deconvolute protein peaks. The tune settings for each data run were as follows: capillary voltage at 3.5 kV, sampling cone at 35, source offset at 35, source temperature 100°C, desolvation temperature 500°C, cone gas at 100 L/h, desolvation gas at 800 L/h, and nebulizer bar at 6.0. Mobile phase A was 0.1% formic acid-water. Mobile phase B was 0.1% formic acid-acetonitrile. The mass accuracy for this system is ±5 Da. Mass spectrometry experiments were performed once over a range of time points.

ADC-33 [9] = biological target: T1, ADC-33; experiment: Steady-state hydrolysis kinetics, ADC-33; assay type: biochemical
Protocol: Steady-state kinetic parameters were determined by combining pure enzyme with antibiotic substrates in 50 mM NaH2PO4, pH 7.4, at room temperature. Changes in absorbance were measured on the Cary 60 UV−Vis spectrophotometer (Agilent Technologies) and converted to velocity using the change in extinction coefficient specific to nitrocefin (NCF) (ε482 = 17,400 M^−1·cm^−1), CAZ (ε260 8,660 M^−1·cm^−1), and cefiderocol (ε259 9,430 M^−1·cm^−1). The concentration of enzyme ranged from 0.1 to 1.0 µM, and all kinetic experiments were performed at least in triplicate. Initial velocities were fitted to the Michaelis-Menten equation, yielding kcat and KM values. The standard error for kcat/KM values was generated by factoring in the larger of the proportional standard errors for the individual kcat value and the KM value. For ADC/substrate combinations in which the KM was too large to accurately determine both kcat and KM values, the initial velocities at kcat/KM values were calculated from linear fits of vo in low [S] ranges (<0.08 * KM).

CC(C)(O/N=C(\C(=O)N[C@@H]1C(=O)N2C(C(=O)[O-])=C(C[n+]3ccccc3)CS[C@H]12)c1csc(N)n1)C(=O)O [CAZ, ceftazidime]
Ki (ADC-217): 0.26 ± 0.014 µM
MIC [1]: 0.25 µg/mL (≈ 0.457 µM)
Ki (ADC-33 [2]): 28.4 ± 2.09 µM
MIC (DH10B alone): 0.5 µg/mL (≈ 0.915 µM)
Ki (ADC-30): 3.23 ± 0.31 µM
MIC [3]: 1020 µg/mL (≈ 1870 µM)
Ki (ADC-73): 8.72 ± 0.74 µM
MIC [4]: 1020 µg/mL (≈ 1870 µM)
MIC [5]: 64 µg/mL (≈ 117 µM)
MIC [6]: 128 µg/mL (≈ 234 µM)
Ki (ADC-7): 2.1 ± 0.25 µM
Ki (ADC-143): 47.8 ± 3.34 µM
MIC [7]: 64 µg/mL (≈ 117 µM)
formation of stable acyl-enzyme adduct (ADC-33 [8]): did not form a stable acyl-enzyme adduct
fold higher kcat/KM for CAZ versus FDC (ADC-33 [9]): ~ 10 fold
